{"source": "patent US12539292B2", "about": "“BRM targeting compounds and associated methods of use” (Arvinas Operations, Inc., priority 2018, dated 2026)", "target": "T1, BRM (Homo sapiens, UniProt P51531)", "T1 construct": "In-Cell Western Screen of BRM Degradation in SW1573 Cells; endogenous in cells; host or cells: SW1573", "T1 sequence (P51531 whole entry)": "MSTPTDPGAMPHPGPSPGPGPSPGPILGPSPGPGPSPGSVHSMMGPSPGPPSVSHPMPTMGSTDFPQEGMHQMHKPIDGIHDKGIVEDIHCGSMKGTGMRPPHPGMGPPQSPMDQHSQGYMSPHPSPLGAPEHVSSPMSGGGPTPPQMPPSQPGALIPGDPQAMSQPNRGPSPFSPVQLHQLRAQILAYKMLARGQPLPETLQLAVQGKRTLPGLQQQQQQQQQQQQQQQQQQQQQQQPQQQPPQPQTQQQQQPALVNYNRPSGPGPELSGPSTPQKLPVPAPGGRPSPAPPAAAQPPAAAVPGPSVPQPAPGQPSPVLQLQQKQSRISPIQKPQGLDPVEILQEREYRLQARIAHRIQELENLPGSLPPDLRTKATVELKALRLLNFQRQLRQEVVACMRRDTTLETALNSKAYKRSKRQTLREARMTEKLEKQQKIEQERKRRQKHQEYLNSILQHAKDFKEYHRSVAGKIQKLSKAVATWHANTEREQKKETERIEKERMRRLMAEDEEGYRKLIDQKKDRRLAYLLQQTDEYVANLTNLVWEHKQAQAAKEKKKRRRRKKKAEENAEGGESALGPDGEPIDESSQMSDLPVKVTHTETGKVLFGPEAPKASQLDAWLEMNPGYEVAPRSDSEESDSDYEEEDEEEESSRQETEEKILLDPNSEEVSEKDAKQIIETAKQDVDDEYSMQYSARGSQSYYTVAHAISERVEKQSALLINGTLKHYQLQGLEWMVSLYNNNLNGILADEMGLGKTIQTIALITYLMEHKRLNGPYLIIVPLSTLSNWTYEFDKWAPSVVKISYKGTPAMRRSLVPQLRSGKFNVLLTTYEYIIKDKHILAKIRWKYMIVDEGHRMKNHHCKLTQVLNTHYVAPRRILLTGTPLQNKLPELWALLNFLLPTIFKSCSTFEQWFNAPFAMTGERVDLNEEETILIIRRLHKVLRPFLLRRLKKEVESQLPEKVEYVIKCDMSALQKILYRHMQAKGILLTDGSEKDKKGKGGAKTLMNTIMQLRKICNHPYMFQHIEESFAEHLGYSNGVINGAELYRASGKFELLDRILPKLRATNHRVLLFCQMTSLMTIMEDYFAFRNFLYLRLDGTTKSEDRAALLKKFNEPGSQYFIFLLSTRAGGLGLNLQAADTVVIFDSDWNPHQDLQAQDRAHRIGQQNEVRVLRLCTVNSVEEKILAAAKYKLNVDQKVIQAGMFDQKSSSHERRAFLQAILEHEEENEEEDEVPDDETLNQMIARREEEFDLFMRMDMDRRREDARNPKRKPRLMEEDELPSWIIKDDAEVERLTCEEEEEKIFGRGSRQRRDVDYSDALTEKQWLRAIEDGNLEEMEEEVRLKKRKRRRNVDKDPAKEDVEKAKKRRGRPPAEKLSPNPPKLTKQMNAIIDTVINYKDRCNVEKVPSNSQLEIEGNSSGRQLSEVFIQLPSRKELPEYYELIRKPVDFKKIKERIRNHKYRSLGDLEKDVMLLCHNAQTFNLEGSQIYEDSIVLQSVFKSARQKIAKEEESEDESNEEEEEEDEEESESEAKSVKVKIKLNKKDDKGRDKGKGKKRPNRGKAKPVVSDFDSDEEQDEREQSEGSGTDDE", "assay": "In-cell Western screen of BRM degradation in SW1573 cells (Dmax and DC50)", "format": "cell-based", "details": "BRM degradation, SW1573 cells; for DC50: read-out: DC50; for Dmax: tested at the top concentration of between 0.3 and 10 μM, read-out: Dmax (%) (% degraded)", "method_in_brief": "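SW1573, overnight cpd exposure (18-20 h), 0.1% DMSO final. PFA fix, 0.5% Triton permeabilization, block; IR secondaries at 800/680 nm. Odyssey read → Dmax, DC50.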", "data": [{"molecule": "CC(=O)NCc1ncsc1-c1ccc([C@H](C)NC(=O)[C@@H]2C[C@@H](O)CN2C(=O)C(c2cc(OCCN3CCN(CCOc4cc(N5C6CCC5CN(c5cc(-c7ccccc7O)nnc5N)C6)ccn4)CC3)no2)C(C)C)cc1", "note": "(stereo partly drawn) [compound 174, (2S,4R)-N-((S)-1-(4-(4-(acetamidomethyl)thiazol-5-yl)phenyl)ethyl)-1-(2-(3-(2-(4-(2-((4-(3-(3-amino-6-(2-hydroxyphenyl)pyridazin-4-yl)-3,8-diazabicyclo[3.2.1]octan-8-yl)pyridin-2-yl)oxy)ethyl)piperazin-1-yl)ethoxy)isoxazol-5-yl)-3-methylbutanoyl)-4-hydroxypyrrolidine-2-carboxamide]", "values": [{"measurement": "DC50", "value": "10 to 30", "unit": "nM"}, {"measurement": "Dmax", "value": "> 75", "unit": "%"}]}, {"molecule": "CC(=O)NCC#Cc1ncsc1-c1ccc([C@H](C)NC(=O)[C@@H]2C[C@@H](O)CN2C(=O)C(c2cc(OCCN3CCN(CCOc4cc(N5C6CCC5CN(c5cc(-c7ccccc7O)nnc5N)C6)ccn4)CC3)no2)C(C)C)cc1", "note": "(stereo partly drawn) [compound 175, (2S,4R)-N-((S)-1-(4-(4-(3-acetamidoprop-1-yn-1-yl)thiazol-5-yl)phenyl)ethyl)-1-(2-(3-(2-(4-(2-((4-(3-(3-amino-6-(2-hydroxyphenyl)pyridazin-4-yl)-3,8-diazabicyclo[3.2.1]octan-8-yl)pyridin-2-yl)oxy)ethyl)piperazin-1-yl)ethoxy)isoxazol-5-yl)-3-methylbutanoyl)-4-hydroxypyrrolidine-2-carboxamide]", "values": [{"measurement": "DC50", "value": "2.5 to 10", "unit": "nM"}, {"measurement": "Dmax", "value": "> 75", "unit": "%"}]}, {"molecule": "Cc1nccn1-c1ccc([C@H](C)NC(=O)[C@@H]2C[C@@H](O)CN2C(=O)[C@H](c2cc(OCCN3CCC(O[C@H]4C[C@H](Oc5cc(N6C7CCC6CN(c6cc(-c8ccccc8O)nnc6N)C7)ccn5)C4)CC3)no2)C(C)C)cc1", "note": "[compound 176, (2S,4R)-1-((2S)-2-(3-(2-(4-((1r,3S)-3-((4-(3-(3-amino-6-(2-hydroxyphenyl)pyridazin-4-yl)-3,8-diazabicyclo[3.2.1]octan-8-yl)pyridin-2-yl)oxy)cyclobutoxy)piperidin-1-yl)ethoxy)isoxazol-5-yl)-3-methylbutanoyl)-4-hydroxy-N-((S)-1-(4-(2-methyl-1H-imidazol-1-yl)phenyl)ethyl)pyrrolidine-2-carboxamide]", "values": [{"measurement": "DC50", "value": "> 30", "unit": "nM"}, {"measurement": "Dmax", "value": "< 50", "unit": "%"}]}, {"molecule": "Cc1nccn1-c1ccc([C@H](C)NC(=O)[C@@H]2C[C@@H](O)CN2C(=O)[C@@H](c2cc(OCCN3CCC(O[C@H]4C[C@H](Oc5cc(N6C7CCC6CN(c6cc(-c8ccccc8O)nnc6N)C7)ccn5)C4)CC3)no2)C(C)C)cc1", "note": "[compound 178, (2S,4R)-1-((2R)-2-(3-(2-(4-((1r,3R)-3-((4-(3-(3-amino-6-(2-hydroxyphenyl)pyridazin-4-yl)-3,8-diazabicyclo[3.2.1]octan-8-yl)pyridin-2-yl)oxy)cyclobutoxy)piperidin-1-yl)ethoxy)isoxazol-5-yl)-3-methylbutanoyl)-4-hydroxy-N-((S)-1-(4-(2-methyl-1H-imidazol-1-yl)phenyl)ethyl)pyrrolidine-2-carboxamide]", "values": [{"measurement": "DC50", "value": "< 2.5", "unit": "nM"}, {"measurement": "Dmax", "value": "> 75", "unit": "%"}]}, {"molecule": "Cc1ncsc1-c1ccc([C@H](C)NC(=O)[C@@H]2C[C@@H](O)CN2C(=O)[C@H](c2cc(OCCN3CCC(O[C@H]4C[C@H](Oc5cc(N6C7CCC6CN(c6cc(-c8ccccc8O)nnc6N)C7)ccn5)C4)CC3)no2)C(C)C)cn1", "note": "[compound 179, (2S,4R)-1-((2S)-2-(3-(2-(4-((1r,3S)-3-((4-(3-(3-amino-6-(2-hydroxyphenyl)pyridazin-4-yl)-3,8-diazabicyclo[3.2.1]octan-8-yl)pyridin-2-yl)oxy)cyclobutoxy)piperidin-1-yl)ethoxy)isoxazol-5-yl)-3-methylbutanoyl)-4-hydroxy-N-((S)-1-(6-(4-methylthiazol-5-yl)pyridin-3-yl)ethyl)pyrrolidine-2-carboxamide]", "values": [{"measurement": "DC50", "value": "> 30", "unit": "nM"}]}]}
